In the NIST ThermoML archive (doi:10.1007/s10765-015-1980-6):
Numbers after ± are expanded uncertainties.

How the values were obtained:
[1] = 101 kPa, Liquid; for speed of sound: Frequency=2 MHz; for mass density: Pycnometric method
[2] = xn = mol fraction of the nth substance listed; settings: 101 kPa, Liquid; for speed of sound: Frequency=2 MHz; for mass density: Pycnometric method

CCCCO [butan-1-ol]
[1]
Settings	mass density [kg/m3]	speed of sound [m/s]
298.15 K	805.6 ± 0.6	1241.1 ± 6.7
303.15 K	801.9 ± 0.6	1223.8 ± 6.6
308.15 K	798.2 ± 0.6	1205.8 ± 6.5
313.15 K	794.5 ± 0.6	1188.8 ± 6.4

OCCOCCO [diethylene glycol]
[1]
Settings	mass density [kg/m3]	speed of sound [m/s]
298.15 K	1112.7 ± 0.7	1579.3 ± 8.5
303.15 K	1109.3 ± 0.7	1568 ± 8.4
308.15 K	1105.9 ± 0.7	1557.3 ± 8.3
313.15 K	1102.5 ± 0.7	1546.1 ± 8.3

CCC(C)O (stereo unspecified) [butan-2-ol] + OCCOCCO
[2], Linear variable-path acoustic interferometer, x2 = 0
Settings	speed of sound [m/s]
298.15 K	1212.2 ± 6.2
303.15 K	1194.1 ± 6.1
308.15 K	1175.3 ± 6
313.15 K	1157.4 ± 5.9

[2], x2 = 0
Settings	mass density [kg/m3]
298.15 K	802.4 ± 0.6
303.15 K	798.3 ± 0.7
308.15 K	794.2 ± 0.7
313.15 K	790.1 ± 0.7

OCCCCO [1,4-butanediol]
[1], Linear variable-path acoustic interferometer
Settings	speed of sound [m/s]
298.15 K	1601.6 ± 8.2
303.15 K	1589.3 ± 8.1
308.15 K	1577.7 ± 8
313.15 K	1565.6 ± 8

[1]
Settings	mass density [kg/m3]
298.15 K	1012.6 ± 0.6
303.15 K	1009.6 ± 0.6
308.15 K	1006.7 ± 0.6
313.15 K	1003.7 ± 0.6

CCC(C)O (stereo unspecified) [butan-2-ol]
[1], Linear variable-path acoustic interferometer
Settings	speed of sound [m/s]
298.15 K	1212.2 ± 6.2
303.15 K	1194.1 ± 6.1
308.15 K	1175.3 ± 6
313.15 K	1157.4 ± 5.9

[1]
Settings	mass density [kg/m3]
298.15 K	802.4 ± 0.6
303.15 K	798.3 ± 0.7
308.15 K	794.2 ± 0.7
313.15 K	790.1 ± 0.7

CCCCO [butan-1-ol] + OCCOCCO
[2], x2 = 0
Settings	mass density [kg/m3]	speed of sound [m/s]
298.15 K	805.6 ± 0.6	1241.1 ± 6.7
303.15 K	801.9 ± 0.6	1223.8 ± 6.6
308.15 K	798.2 ± 0.6	1205.8 ± 6.5
313.15 K	794.5 ± 0.6	1188.8 ± 6.4

OCCOCCO [diethylene glycol] + OCCCCO
[2], Linear variable-path acoustic interferometer, x1 = 1
Settings	speed of sound [m/s]
298.15 K	1579.3 ± 8.1
303.15 K	1568 ± 8
308.15 K	1557.3 ± 8
313.15 K	1546.1 ± 7.9

[2], x1 = 1
Settings	mass density [kg/m3]
298.15 K	1112.7 ± 0.7
303.15 K	1109.3 ± 0.7
308.15 K	1105.9 ± 0.7
313.15 K	1102.5 ± 0.7
